Reference: patent US12239643B2, “Therapeutic agent for inflammatory diseases, autoimmune diseases, fibrotic diseases, and cancer diseases” (MEIJI SEIKA PHARMA CO., LTD., priority 2018, dated 2025)

Key:
Format in all cases: cell-based
[1] = system: CEM-C1 (blood cancer (leukemia)); assay: Antitumor activity: growth inhibition of CEM-C1; details: 120 h; CEM-C1, culturing for 5 days; read-out: 50% growth inhibitory concentration
Description: (§1) As antitumor activity, 50% growth inhibitory concentration of various cancer cells (CEM-C1 (blood cancer (leukemia)), SU-DHL-4 (blood cancer (lymphoma)), A549 (lung cancer), HCT-116 (colorectal cancer), and Daoy (brain tumor)) was calculated as follows. First, each of the above cancer cells was seeded on a 384-well plate and cultured overnight at 37° C. under 5% CO2. After that, the test compound was added at various concentrations on the next day, and each number of cells was measured after culturing for 5 days. The 50% growth inhibitory concentration was defined as the test compound concentration at which the number of cells measured is an intermediate value between the number of cells after culture for 5 days under the same conditions without the addition of the test compound and the number of cells at the time of seeding (before the start of culture). The measurement results obtained by measuring the 50% growth inhibitory concentration of the test compound by the above method were evaluated in accordance with the following evaluated basis; A: less than 10 μM, B: 10 μM or more and less than 50 μM, and C: 50 μM or more. As a result of using apremilast as the test compound, the evaluation was C in all cancer cells. On the other hand, as a result of using the compound obtained in Example 248 as the test compound, the evaluation was A in all cancer cells.

[2] = system: HCT-116 (colorectal cancer); assay: Antitumor activity: growth inhibition of HCT-116; details: Homo sapiens, 120 h; HCT-116, culturing for 5 days; read-out: 50% growth inhibitory concentration
Description: as §1

IL-13 = assay: Cytokine suppression using human peripheral blood mononuclear cells: IL-13; details: human PBMC, CD3 antibody and CD28 antibody; read-out: IL-13 Inhibitory Activity, Human PBMC (Test Example 4)
Description: (§2) First, peripheral blood mononuclear cells (PBMC) were separated from whole blood by specific gravity centrifugation. Then, the isolated peripheral blood mononuclear cells were added to RPMI-1640 medium (containing 10% fetal bovine serum, penicillin, streptomycin, L-glutamine, and 2-mercaptoethanol), and cultured in a 96-well plate at 37° C. under 5% CO2 for 0 to 1 hour. The test compound dissolved in dimethyl sulfoxide was added to each well, followed by further culture at 37° C. under 5% CO2 for 1 hour. A medium containing only dimethyl sulfoxide instead of the test compound was added to the control well. […]
(§3) The measurement results obtained by measuring the TNFα inhibitory activity and IL-5 inhibitory activity (50% inhibitory concentration) of the test compounds by the above method were evaluated in accordance with the following evaluated basis; A: less than 10 nM, B: 10 nM or more and less than 100 nM, and C: 100 nM or more. In addition, the measurement results obtained by measuring the IL-17A inhibitory activity, IL-23 inhibitory activity, IL-4 inhibitory activity, and IL-13 inhibitory activity (50% inhibitory concentration) of the test compounds were evaluated in accordance with the following evaluated basis; A: less than 500 nM, B: 500 nM or more and less than 5000 nM, and C: 5000 nM or more.

IL-4 = assay: Cytokine suppression using human peripheral blood mononuclear cells: IL-4; details: human PBMC, CD3 antibody and CD28 antibody; read-out: IL-4 Inhibitory Activity, Human PBMC (Test Example 4)
Description: as §2, §3

IL-17A = assay: Cytokine suppression using human T cells: IL-17A; details: T-cell; human CD3-positive T cells, CD3 antibody, about 48 hours; read-out: IL-17A Inhibitory Activity, Human T-Cell (Test Example 5)
Description: First, CD3-positive T cells were separated from whole blood by a magnetic bead method using an EasySep cell separation kit. Separated T cells suspended in RPMI-1640 medium were seeded on a 96-well plate previously coated with CD3 antibody (final concentration 3 μg/mL). Further, CD28 antibody (final concentration 5 ng/mL) was added as an IL-5 production stimulus and an IL-13 production stimulus. A test compound dissolved in dimethyl sulfoxide was added to each well, followed by culture at 37° C. under 5% CO2. The culture was carried out for about 18 hours for the evaluation of the amount of TNFα, and for about 48 hours for the evaluation of the amounts of IL-17A, IL-5, and IL-13. […]
as §3, with “TNFα” for “TNFα inhibitory activity and IL-5”, “IL-5” for “IL-23 inhibitory activity, IL-4”

SMILES | IC50 [1] [µM] | IC50 [2] [µM] | IC50 (IL-13) [µM] | IC50 (IL-4) [µM] | IC50 (IL-17A) [µM]
CC(C)(O)C(F)(F)Oc1ccc(-c2nccs2)c2oc(N3CC4CC(C3)N4)nc12 [Example 248, 1-((2-(3,6-Diazabicyclo[3.1.1]heptan-3-yl)-7-(thiazol-2-yl)benzo[d]oxazol-4-yl)oxy)-1,1-difluoro-2-methylpropan-2-ol] | < 10 | < 10 | < 0.5 | < 0.5 | < 0.5
CCOc1cc([C@@H](CS(C)(=O)=O)N2C(=O)c3cccc(NC(C)=O)c3C2=O)ccc1OC [apremilast, reference compound] | ≥ 50 | ≥ 50 | ≥ 5 | ≥ 5 | 0.5 to 5
